According to publication PMC5404848 (Cell Chemical Biology, 2017):

Columns and labels:
Format in all cases: cell-based, Human
HCT116 p53^wt cells [1] = assay: Caspase 3/7 activity (Caspase-Glo 3/7)
Experimental: To evaluate whether the observed effects are accompanied by the induction of apoptosis, we examined the activation of caspases 3 and 7 in HCT116 p53^wt cells.
The cells were plated on the 96-well white, flat bottom plates (Falcon) and treated with DMSO, LCAHA or Staurosporine. For the detection of caspase activity Caspase-Glo 3/7 Assay System was used (Promega) according to the manufacturer’s instructions.

HCT116 p53^wt cells [2] = tested on: HCT116 p53^wt cells
From the text: […]. To investigate this effect, we analyzed the cell-cycle distribution. Cells treated for 48 hr with LCAHA or DMSO were pulse-labeled with BrdU for 1 hr and stained with fluorescein isothiocyanate (FITC)-anti-bromodeoxyuridine (BrdU) antibody and propidium iodide (PI). […].
[…]. To track the progression through the S phase and G0/G1 arrest precisely, we analyzed FITC-positive and -negative cells separately for cell-cycle distribution using ModFit LT software.
[…]. After that, the cells were either harvested by trypsinization and fixed with 96% ethanol, or cultured for additional 3-9 hours in the absence of BrdU before harvesting and fixation. The cells were stained with PI and FITC-conjugated anti-BrdU antibody (BioLegend, cat. 364104) and analysed with Fortessa flow cytometer (Becton Dickinson). Cell cycle distribution was analysed using ModFit LT Software (Verity Software House).
Figure S2. PI-BrdU pulse-chase labeling of HCT116 cells for the evaluation of cell cycle progression following LCAHA treatment. […].
HCT116 p53wt cells were seeded on culture dishes in growth medium containing 3.3% FBS and treated […]
the end of the treatment half of the medium was collected in a falcon tube, and the other half was supplemented with BrdU in a final concentration of 10 µM. After one hour, the medium containing BrdU was removed and the cells were trypsinized and fixed (time “t0”) or cultured in the medium previously collected in the falcon tube for additional 3, 6 or 9 hours. After that time the cells were trypsinized, fixed and stained with FITC conjugated anti-BrdU antibody and propidium iodide (PI). The cells were analyzed by flow cytometry using BD Fortessa cell analyzer and BD […] software. All cells, as well as FITC positive (BrdU+, top panel) and FITC negative (BrdU-, bottom panel) counts were exported to separate files and analyzed separately using ModFit LT Software. The graphs show mean ± SD values from three independent experiments. The statistical significance was evaluated using one-way ANOVA with Tukey’s […]

HCT116 p53^wt cells [3] = assay: Western blot analysis of protein expression
From the text: (§1) The progression from G1 to S phase relies largely on the expression and activity of D cyclins. To verify whether the observed impairment in cell-cycle progression following LCAHA treatment is associated with D cyclins, we investigated the expression of cyclins D1 and D3 in HCT116 p53^wt and HCT116 p53^−/− cells.

HCT116 p53^−/− cells = assay: Western blot analysis of protein expression; conditions: 5 or 20 μM, 48 hr
From the text: as §1

MCF-7 cells = assay: MTT assay, 6 days
Experimental: (§2) In addition a colony-forming assay was performed on cyclin D1-addicted MCF-7 cells and cyclin D1-negative SAOS-2 cells.
(§3) For MTT assay, the cells were seeded on 96-well transparent plates and treated the next day with the compounds or DMSO for 6 days. Thiazolyl Blue Tetrazolium Bromide (MTT, Sigma Aldrich) was added for 60 minutes to a final concentration of […]. The medium was removed and MTT crystals were dissolved in isopropanol supplemented with 40 mM HCl. The absorbance was measured with Infinite 200 microplate reader (Tecan Group Ltd.) at 570 nm with the reference wavelength 650 nm for background subtraction.

SAOS-2 cells = assay: MTT assay, 6 days
Experimental: as §2, §3

U-2 OS cells [4] = assay: MTT assay, 6 days
Experimental: as §2, §3

U-2 OS cells [5] = assay: Western blot analysis of cyclin D1 expression; conditions: 10 μM, 48 hr
[6] = tested on: CCND1 mRNA in HCT116, MCF-7, and U-2 OS; assay: RT-PCR of CCND1 mRNA; conditions: 10 μM, 48 hr
Experimental: To characterize the mechanism of cyclin D1 downregulation by LCAHA, we first examined the level of CCND1 mRNA. […] In SAOS-2 cells CCND1 mRNA was not detected.
Total RNA was isolated with Renozol (GenoPlast Biochemicals) according to the manufacturer’s instructions. Five hundred ng of RNA was reverse-transcribed using M-MLV RT (Promega) and oligo-dT primer. RT PCR was performed with the use of GoTaq qPCR Master Mix (Promega) and the following primers: for CCND1 mRNA: […] and […], for GAPDH mRNA: […] and […] ([Yin et al., 2001]). The hybridization step was carried out at 60°C and the program involved 30 amplification cycles. The products were separated on 1% agarose gel and visualized with ChemiDoc MP system.

HCT116 p53^wt cells [7] = assay: Western blot analysis of protein expression; remark: listed apart in the source
[8] = 5 μM, 48 hr, nine hours after BrdU pulse

In the case of `C[C@H](CCC(=O)NO)[C@H]1CC[C@H]2[C@@H]3CC[C@@H]4C[C@H](O)CC[C@]4(C)[C@H]3CC[C@]12C` [LCAHA, N-(hydroxy)-3-hydroxylithocholanamide], the “caspase 3 and 7 activity” value (HCT116 p53^wt cells [1]; 10 μM) is reported as “increase of caspase activity significant”, the “caspase 3 and 7 activity” value (HCT116 p53^wt cells [1]; 1 or 5 μM, 48 or 72 hr) is reported as “weak and non-significant increase” and the “BrdU incorporation (rate of DNA synthesis)” value (HCT116 p53^wt cells [2]) is reported as “dose-dependent decrease in the rate of DNA synthesis”. The “BrdU^− cells that left G0/G1 phase and entered the S phase” value (HCT116 p53^wt cells [2]; [8]) was 20%, the “proportion of BrdU^+ cells in G0/G1 phase” value (HCT116 p53^wt cells [2]; [8]) was 24% and the “proportion of BrdU^+ cells remaining in the S phase” value (HCT116 p53^wt cells [2]; [8]) was 56%. The cell-cycle progression (HCT116 p53^wt cells [2]; 5 μM, control siRNA-transfected HCT116 cells) was “blocked the cell-cycle progression”, the G0/G1 arrest (HCT116 p53^wt cells [2]; 5 or 10 μM, 48 hr) was “mild, but significant G0/G1 arrest” and the “cyclin D1 level over time course” value (HCT116 p53^wt cells [3]; 5 μM, 24, 26, 28, 30, or 32 hr) was “significant decrease in cyclin D1”. The “cyclin D1 expression” value (HCT116 p53^wt cells [3]; 5 or 20 μM, 48 hr) was “significant, dose-dependent decrease”, the “cyclin D3 expression” value (HCT116 p53^wt cells [3]; 5 or 20 μM, 48 hr) was “no effect” and the “cyclin D1 expression” value (HCT116 p53^−/− cells) was “significant, dose-dependent decrease”. The “cyclin D3 expression” value (HCT116 p53^−/− cells) was “no effect”, the “viability (MTT)” value (MCF-7 cells) was “biphasic, dose-dependent decrease of viability” and the “viability (MTT)” value (SAOS-2 cells) was “viability decrease was observed only at high concentrations”. For the same compound, the “viability (MTT)” value (U-2 OS cells [4]) was “biphasic, dose-dependent decrease of viability”, the “cyclin D1 expression” value (U-2 OS cells [5]) was “significant decrease of cyclin D1 expression” and the “level of CCND1 mRNA” value [6] was “did not change”. The “phosphorylation of Akt (S473)” value (HCT116 p53^wt cells [7]; 5 μM, 24–32 hr) was “increase of the phosphorylation”, the “phosphorylation of GSK-3β (S9)” value (HCT116 p53^wt cells [7]; 5 μM, 24–32 hr) was “increase of the phosphorylation” and the “expression of p27” value (HCT116 p53^wt cells [7]; 5 or 20 μM, 48 hr, HCT116 cells (Figures 2A and S3A)) was “not altered”. The “expression of proteins encoded by p53-target genes (MDM2 and p21) and of p53” value (HCT116 p53^wt cells [7]; 24 or 48 hr) was “did not induce”.
